# Assay results from ChEMBL document CHEMBL1130478, “Mono and bis double ester prodrugs of novel aminomethyl-THF 1-methylcarbapenems” (Bioorg Med Chem Lett, 1997).
# Columns and labels:
# Staphylococcus aureus [1] = test: In vitro antibacterial activity against S. aureus(GC 2220 MRSA) without pre-incubation in mouse serum; format: functional
# Enterobacter cloacae [2] = test: In vitro antibacterial activity against E. cloacae(GC 2209) without pre-incubation in mouse serum; format: functional
# Enterococcus faecalis [3] = test: In vitro antibacterial activity against E. faecalis(GC 842) without pre-incubation in mouse serum
# Staphylococcus aureus [4] = test: In vitro antibacterial activity against S. aureus(ATCC 29213) without pre-incubation in mouse serum; format: functional
# Pseudomonas aeruginosa [5] = test: In vitro antibacterial activity against P. aeruginosa(GC 1544 oprd) without pre-incubation in mouse serum; format: functional
# Escherichia coli [6] = test: In vitro antibacterial activity expressed as MIC against E. coli(GC 1792) without pre-incubation in mouse serum; format: functional
# Citrobacter freundii [7] = test: In vitro antibacterial activity against C. freundii(GC 2211) without preincubation in mouse serum; format: functional
# Enterococcus faecium [8] = test: In vitro for antibacterial activity against E. faecium(GC 1182) without pre-incubation in mouse serum; format: functional
# [9] = system: Stenotrophomonas maltophilia; test: In vitro antibacterial activity against X. maltophilia(GC 562) without pre-incubation in mouse serum
# Mus musculus [10] = test: Antibacterial activity against Escherichia coli (311) infection in mice after single oral dose, activity expressed as ED50; format: functional
# [11] = system: Acinetobacter calcoaceticus; test: In vitro antibacterial activity against Acinetobacter calcoaceticus (GC 756) without preincubation in mouse serum; format: functional
# Mus musculus [12] = test: Antibacterial activity against Escherichia coli (311) infection in mice after single subcutaneous dose, activity expressed as ED50; format: functional; conditions: sc
# [13] = target: T1, Dipeptidase 1 (Sus scrofa) (UniProt P22412); test: Relative hydrolysis by hog Dehydropeptidase; format: functional
# T1 sequence (whole entry): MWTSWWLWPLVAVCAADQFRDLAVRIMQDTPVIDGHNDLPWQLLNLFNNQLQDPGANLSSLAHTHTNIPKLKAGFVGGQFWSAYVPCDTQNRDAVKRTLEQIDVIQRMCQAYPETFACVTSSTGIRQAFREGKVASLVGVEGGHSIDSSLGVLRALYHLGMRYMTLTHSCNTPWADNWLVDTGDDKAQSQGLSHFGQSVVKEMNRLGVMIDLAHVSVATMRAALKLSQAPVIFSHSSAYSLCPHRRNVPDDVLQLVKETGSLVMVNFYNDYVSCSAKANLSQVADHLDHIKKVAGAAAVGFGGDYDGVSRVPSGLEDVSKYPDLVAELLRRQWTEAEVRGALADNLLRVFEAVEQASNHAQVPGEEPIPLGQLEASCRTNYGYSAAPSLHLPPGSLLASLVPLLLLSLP
# Escherichia coli [14] = test: In vitro antibacterial activity expressed as MIC against Escherichia coli (ATCC 25922) without pre-incubation in mouse serum; format: functional
# Escherichia coli [15] = test: In vitro antibacterial activity expressed as MIC against E. coli(GC 2205) without pre-incubation in mouse serum; format: functional
# Morganella morganii [16] = test: In vitro antibacterial activity against M. morganii(GC 2213) without preincubation in mouse serum
# Pseudomonas aeruginosa [17] = test: In vitro antibacterial activity against Pseudomonas aeruginosa (ATCC 27853) without pre-incubation in mouse serum; format: functional
# Staphylococcus aureus [18] = test: In vitro antibacterial activity against S aureus(ATCC 29213) following preincubation in mouse serum; format: functional
# Citrobacter freundii [19] = test: In vitro antibacterial activity against C. freundii(GC 2211) following pre-incubation in mouse serum; format: functional
# [20] = system: Stenotrophomonas maltophilia; test: In vitro antibacterial activity against X. maltophilia(GC 562) following pre-incubation in mouse serum; format: functional
# Enterobacter cloacae [21] = test: In vitro antibacterial activity against E. cloacae(GC 2209) following preincubation in mouse serum; format: functional
# Pseudomonas aeruginosa [22] = test: In vitro antibacterial activity against Pseudomonas aeruginosa (ATCC 27853) following pre-incubation in mouse serum; format: functional
# Escherichia coli [23] = test: In vitro antibacterial activity expressed as MIC against E. coli(GC 2205) following pre-incubation in mouse serum; format: functional
# Pseudomonas aeruginosa [24] = test: In vitro antibacterial activity against P. aeruginosa(GC 1544 oprd) following pre-incubation in mouse serum; format: functional
# Enterococcus faecalis [25] = test: In vitro antibacterial activity against E. faecalis(GC 842) without pre-incubation in mouse serum; format: functional
# Morganella morganii [26] = test: In vitro antibacterial activity against M. morganii(GC 2213) without pre-incubation in mouse serum; format: functional
# Enterococcus faecalis [27] = test: In vitro antibacterial activity against E. faecalis(GC 842) following pre-incubation in mouse serum; format: functional
# [28] = system: Stenotrophomonas maltophilia; test: In vitro antibacterial activity against X. maltophilia(GC 562) without pre-incubation in mouse serum; format: functional
# Morganella morganii [29] = test: In vitro antibacterial activity against M. morganii(GC 2213) following pre-incubation in mouse serum; format: functional
# [30] = system: Acinetobacter calcoaceticus; test: In vitro antibacterial activity against Acinetobacter calcoaceticus (GC 756) following preincubation in mouse serum; format: functional
# Escherichia coli [31] = test: In vitro antibacterial activity expressed as MIC against E. coli(GC 1792) following pre-incubation in mouse serum; format: functional
# Escherichia coli [32] = test: In vitro antibacterial activity expressed as MIC against Escherichia coli (ATCC 25922) following pre-incubation in mouse serum; format: functional
# Enterococcus faecium [33] = test: In vitro for antibacterial activity against E. faecium(GC 1182) following pre-incubation in mouse serum; format: functional
# Staphylococcus aureus [34] = test: In vitro antibacterial activity against S. aureus(GC 2220 MRSA) following pre-incubation in mouse serum; format: functional
SMILES,MIC (Staphylococcus aureus [1]) [µg/mL],MIC (Enterobacter cloacae [2]) [µg/mL],MIC (Staphylococcus aureus [4]) [µg/mL],MIC (Pseudomonas aeruginosa [5]) [µg/mL],MIC (Escherichia coli [6]) [µg/mL],MIC (Citrobacter freundii [7]) [µg/mL],MIC (Enterococcus faecium [8]) [µg/mL],ED50 (Mus musculus [10]) [mg/kg],MIC [11] [µg/mL],ED50 (Mus musculus [12]) [mg/kg],Relative hydrolysis [13],MIC (Escherichia coli [14]) [µg/mL],MIC (Escherichia coli [15]) [µg/mL],MIC (Pseudomonas aeruginosa [17]) [µg/mL],MIC (Staphylococcus aureus [18]) [µg/mL],MIC (Citrobacter freundii [19]) [µg/mL],MIC [20] [µg/mL],MIC (Enterobacter cloacae [21]) [µg/mL],MIC (Pseudomonas aeruginosa [22]) [µg/mL],MIC (Escherichia coli [23]) [µg/mL],other results
C[C@@H](O)[C@H]1C(=O)N2C(C(=O)O)=C(S[C@@H]3CCO[C@@H]3CN)[C@H](C)[C@H]12,1,< 0.06,< 0.06,16,< 0.06,< 0.06,64,3.8,2,0.34,8.5,< 0.06,< 0.06,8,,,,,,,MIC (Enterococcus faecalis [3]): 0.5 µg/mL; MIC [9]: > 128 µg/mL; MIC (Morganella morganii [16]): 0.5 µg/mL
CCOC(=O)OCOC(=O)C1=C(S[C@@H]2CCO[C@@H]2CNC(=O)OC(C)OC(=O)C(C)(C)C)[C@H](C)C2[C@@H]([C@@H](C)O)C(=O)N12 (stereo partly specified),64,> 128,4,> 128,> 128,> 128,> 128,0.42,> 128,0.46,19,128,1,> 128,0.06,0.5,> 128,0.12,32,0.06,MIC (Pseudomonas aeruginosa [24]): 64 µg/mL; MIC (Enterococcus faecalis [25]): 32 µg/mL; MIC (Morganella morganii [26]): > 128 µg/mL; MIC (Enterococcus faecalis [27]): 2 µg/mL; MIC [28]: > 128 µg/mL; MIC (Morganella morganii [29]): 2 µg/mL; MIC [30]: 8 µg/mL; MIC (Escherichia coli [31]): 0.06 µg/mL; MIC (Escherichia coli [32]): 0.06 µg/mL; MIC (Enterococcus faecium [33]): 64 µg/mL; MIC (Staphylococcus aureus [34]): 4 µg/mL
CCOC(=O)OCOC(=O)C1=C(S[C@@H]2CCO[C@@H]2CNC(=O)OCOC(=O)C(C)(C)C)[C@H](C)C2[C@@H]([C@@H](C)O)C(=O)N12 (stereo partly specified),64,> 128,4,> 128,> 128,> 128,> 128,0.96,> 128,0.73,20,128,1,> 128,0.12,0.5,> 128,0.25,32,0.12,MIC (Pseudomonas aeruginosa [24]): 64 µg/mL; MIC (Enterococcus faecalis [25]): 64 µg/mL; MIC (Morganella morganii [26]): > 128 µg/mL; MIC (Enterococcus faecalis [27]): 4 µg/mL; MIC [28]: > 128 µg/mL; MIC (Morganella morganii [29]): 4 µg/mL; MIC [30]: 8 µg/mL; MIC (Escherichia coli [31]): 0.12 µg/mL; MIC (Escherichia coli [32]): 0.06 µg/mL; MIC (Enterococcus faecium [33]): > 128 µg/mL; MIC (Staphylococcus aureus [34]): 2 µg/mL
CCOC(=O)OCOC(=O)C1=C(S[C@@H]2CCO[C@@H]2CNC(=O)OCOC(=O)C(C)C)[C@H](C)C2[C@@H]([C@@H](C)O)C(=O)N12 (stereo partly specified),128,> 128,4,> 128,16,> 128,> 128,0.56,> 128,0.4,11,32,20,> 128,0.06,0.25,> 128,0.12,16,0.06,MIC (Pseudomonas aeruginosa [24]): 32 µg/mL; MIC (Enterococcus faecalis [25]): 64 µg/mL; MIC (Morganella morganii [26]): 128 µg/mL; MIC (Enterococcus faecalis [27]): 2 µg/mL; MIC [28]: > 128 µg/mL; MIC (Morganella morganii [29]): 1 µg/mL; MIC [30]: 4 µg/mL; MIC (Escherichia coli [31]): 0.06 µg/mL; MIC (Escherichia coli [32]): < 0.06 µg/mL; MIC (Enterococcus faecium [33]): 128 µg/mL; MIC (Staphylococcus aureus [34]): 4 µg/mL
CC(C)C(=O)OCOC(=O)NC[C@H]1OCC[C@H]1SC1=C(C(=O)[O-])N2C(=O)[C@H]([C@@H](C)O)C2[C@H]1C.[Na+] (stereo partly specified),8,1,0.25,> 128,0.5,2,> 128,5.1,32,0.59,2.9,0.25,0.12,64,0.03,0.25,> 128,0.06,8,< 0.06,MIC (Pseudomonas aeruginosa [24]): 16 µg/mL; MIC (Enterococcus faecalis [25]): 4 µg/mL; MIC (Morganella morganii [26]): 4 µg/mL; MIC (Enterococcus faecalis [27]): 1 µg/mL; MIC [28]: > 128 µg/mL; MIC (Morganella morganii [29]): 0.5 µg/mL; MIC [30]: 4 µg/mL; MIC (Escherichia coli [31]): < 0.06 µg/mL; MIC (Escherichia coli [32]): < 0.06 µg/mL; MIC (Enterococcus faecium [33]): 64 µg/mL; MIC (Staphylococcus aureus [34]): 2 µg/mL
